Test results published in paper PMC12557438, “Thiadiazino-indole, thiadiazino-carbazole and benzothiadiazino-carbazole dioxides: synthesis, physicochemical and early ADME characterization of representatives of new tri-, tetra- and pentacyclic ring systems and their intermediates” (Beilstein Journal of Organic Chemistry, 2025).
In brackets after ≈: the same amount, converted by molar mass.

What was measured:
Assay type in all cases: physicochemical
[1] = DMSO solubility (stock solution preparation)
Method: (§1) Kinetic aqueous solubility assay. All compounds were dissolved in DMSO to make stock solutions at 10 mM concentration. […] 5 μL of the stock solutions was pipetted into a 96-well plate containing 495 μL PBS (pH 6.5) in each well to achieve 100 μM target concentration (1% DMSO). […] The plate was then sealed and shaken for 2 hours at room temperature. Each compound was investigated in 3 replicates. After 2 hours, the samples were filtered on a MultriscreenHTS filter plate (MSSLBPC, polycarbonate membrane, Merck KGaA, Darmstadt, Germany) by a Millipore Vacuum Manifold (Merck KGaA, Darmstadt, Germany). Before analyzing, 20 vol % acetonitrile was added to each well to avoid sample precipitation during HPLC analysis.

[2] = Determination of the capacity factor (logk) by RP-HPLC; details: reversed-phase chromatographic capacity factor, eluent pH 7.0
Method: Determination of the capacity factor. […] The same analytical method was used with modified eluents: eluent A was 20 mM triethylamine with phosphoric acid (pH 7.0), and eluent B was acetonitrile without additives. The method time was slightly extended, with a 1-minute longer gradient, resulting in an 8-minute program. The capacity factor was calculated with Equation 3: […]
where k is the capacity factor, tR is the retention time (min) of the compounds and t0 is the dead-time of the column (min).

[3] = Kinetic aqueous solubility assay; parameters: key to Kinetic solubility (no value): –: Compounds with no value were under the detection limit; details: room temperature; for Kinetic solubility (no value): PBS pH 6.5, 2 hours, dash = under the detection limit; for solubility kinetic at 2 h: PBS buffer, pH 6.5, aqueous buffer, kinetic from dmso stock, PBS pH 6.5, 100 µM target concentration (1% DMSO), mean of 3 replicates, read-out: Kinetic solubility
Method: as §1
Analytical methods. […] For a 7-minute long gradient program, eluents A (0.1% formic acid in water) and B (0.1% formic acid in acetonitrile) were used as follows: initial conditions with 30% B were kept for 1 minute, then 90% B was achieved within 3 minutes, kept for further 1 minute, finally the initial condition was adjusted and equilibrated for further 2 minutes. 5-Point calibration series were measured from each compound resulting in R^2 ≈ 0.9990–0.9999.

Structure (SMILES): CC1=NN(C)S(=O)(=O)c2c(N/N=C3\CCCc4ccccc43)cccc21 [(E)-9a]
- highest concentration achieved in DMSO [1]: 1 mM
- logk (−) pH 7.0 [2]: 0.653
- Kinetic solubility (no value) [3]: –

Structure (SMILES): CN1N=C(c2ccccc2)c2cccc(N/N=C3\CCCc4ccccc43)c2S1(=O)=O [(E)-9b]
- highest concentration achieved in DMSO [1]: 0.5 mM
- logk (−) pH 7.0 [2]: 0.695
- Kinetic solubility (no value) [3]: –

Structure (SMILES): CN1N=C(c2ccccc2)c2cccc(NN=C3CCCC3)c2S1(=O)=O [Compound 7i]
- highest concentration achieved in DMSO [1]: 0.5 mM
- logk (−) pH 7.0 [2]: 0.661
- solubility kinetic at 2 h [3]: 2.2 ± 0.1 µM (≈ 0.811 µg/mL)

Structure (SMILES): CN1N=C(c2ccccc2)c2cccc(NN=C3CCCCC3)c2S1(=O)=O [Compound 7j]
- highest concentration achieved in DMSO [1]: 0.5 mM
- logk (−) pH 7.0 [2]: 0.660
- solubility kinetic at 2 h [3]: 2.8 ± 0.2 µM (≈ 1.07 µg/mL)
